# Reference: patent publication US8227428B2, “Anti-infammatory macrolide” (Glaxo Group Limited, priority 2009, dated 2012)
# Columns and labels:
# [1] = test system: Lung neutrophilia induced by bacterial lipopolysaccharide (LPS); test: Lung neutrophilia induced by bacterial lipopolysaccharide (LPS) in male BALB/cJ mice; format: in vivo; details: average; single dose 200 mg/kg i.p.; vs LPS challenged untreated animals
# Method: For intraperitoneal administration (i.p.) compounds are dissolved in a final concentration of 10 mg/mL. The required amount of compound is first dissolved in dimethylsulfoxide (DMSO, Sigma) and then diluted with 0.5% (w/v) methyl-cellulose so that the final DMSO concentration is 5% (v/v). The obtained solution is applied in a dose volume of 0.2 mL per 10 g of animal. Therefore, the compound dose is 200 mg/kg.
# Male BALB/cJ mice (Charles River, France), with an average weight of ˜30 g are randomly grouped (n=8 in testing group, 10 in positive control and 8 in negative control). Mice receive intraperitoneally (i.p.) a single dose of 200 mg/kg of test compound. Two hours after administration, 2 μg of LPS (from Escherichia coli serotype 0111:B4, Sigma), dissolved in sterile PBS in a volume of 60 μL, is intranasally administered to all experimental groups except the negative control group, which receive the same volume of vehicle (PBS). Animals are sacrificed approximately 24 hours after application of LPS in order to obtain bronchioalveolar lavage fluid (BALF), which is used to determine absolute number of cells and the percentage of neutrophils. Results are expressed as percentage decrease in total cell number and number of neutrophils in BALF of treated animals compared to positive control (LPS challenged, but untreated animals).
# [2] = Stability in buffer solutions pH 2 to pH 8 at 25° C.; format: physicochemical; details: 25° C., during 24 hours
# Method: (§1) Stability in buffer solutions pH 2 to pH 8 at 25° C., and in bio-relevant media (SGF pH 1.6, Fasted SIF pH 6.5 and Fed SIF pH 5.0) at 37° C., during 24 hours is monitored. The samples are analysed by LC/MS.
# Buffer Solutions and Physiologically Relevant Media Used in Stability Assay:
# LC Conditions: Instrument HP1100
# Column: Waters XBridge C18, 2.1×50 mm, 3.5 μm
# Guard column: Waters XBridge C18, 2.1×10 mm, 3.5 μm
# • A) 0.1% HCOOH/H2O • B) 0.1% HCOOH/CH3CN Gradient Timetable: […]
# (§2) Flow: 0.3 mL/min Column temp.: 25° C. Sample temp.: 25° C. (for stability assay in buffer solutions) • 37° C. (for stability assay in bio-relevant media) Injector volume: 3 μL (without injection program) MS Conditions: Instrument HP MS API-ES, positive ion mode Mass Range: 150-1500 Fragmentor: 100 Gain: 1.0 Treshold: 150 Step size: 0.20 Gas Temperature: 350° C. Drying Gas Flow: 13 L/min Nebulizer Pressure: 35 psig Capillary Voltage Positive 4000 V • Negative 4000 V Sample Preparation: a) For Stability Assay in Buffer Solutions
# Compounds are dissolved in CH3CN to produce a 1 mg/mL stock solution. The stock solution is diluted to a concentration of 0.2 mg/mL (1 mL solution in 4 mL buffer) with appropriate buffer to produce a working solution.
# Each solution at each pH is then dispatched into vials that are sealed and stored at room temperature in order to be analyzed at the proper time point. Before analysis, pH values of prepared sample solutions are checked and adjusted if neccessary.
# [3] = In vitro stability in human whole blood; format: in vitro ADME; details: 37° C., 2000 ng/mL, over 24 hours
# Method: (§3) An in vitro stability study in human whole blood and plasma is carried out over 24 hours at 37° C. Drug-free freshly collected human blood (CPD—citrate-phosphate-dextrose is used for all blood collections as anticoagulant) and plasma are spiked with a previously prepared standard solution of test compound to a final concentration of 2000 ng/mL. For each compound blood and plasma are spiked in duplicate and incubated for 24 hours. Two separate aliquots of blood or plasma (50 μL) are sampled from each incubation mixture at 0, 15, 30, 60, 120, 240 and 1440 minutes. All aliquots are mixed with an equal volume of water (50 μL) and extracted with 300 μL of acetonitrile/methanol (2:1) containing internal standard (roxithromycin). The samples are then vortexed, centrifuged and analysed by LC/MS/MS (MRM mode). Results are expressed as the percentage of compound remaining, expressed as the ratio of analyte/internal standard.
# [4] = In vitro stability in human plasma; format: in vitro ADME; details: 37° C., 2000 ng/mL, over 24 hours
# Method: as §3
# [5] = Stability in bio-relevant media (SGF, Fasted SIF, Fed SIF) at 37° C.; format: physicochemical; details: SGF pH 1.6, Fasted SIF pH 6.5, Fed SIF pH 5.0, 37° C., during 24 hours
# Method: as §1
# SGF (Simulated Gastric Fluid) pH 1.6
# Fasted SIF (Simulated Intestinal Fluid) pH 6.5
# Fed SIF (Simulated Intestinal Fluid) pH 5.0
# as §2
# b) For Stability Assay in Bio-Relevat Media
# b1) For SGF Media pH 1.6 Testing:
# Compounds are dissolved in SGF media pH 1.6 to give 0.2 mg/mL solution in case of compounds 1 and 2, and to give 0.1 mg/mL solution in case of compound 3. Solutions are then stored in a water bath at 37° C. and removed at the proper time point for LC/MS analysis. Before analysis, pH values of prepared sample solutions are checked and adjusted if necessary.
# b2) For Fasted SIF Media pH 6.5 Testing:
# (§4) Compounds are dissolved in Fasted SIF media pH 6.5 to give 2 mg/mL solution. Solutions are then dispatched into vials that are stored in a water bath at 37° C. and removed at the proper time point and diluted 10 times with CH3CN for LC/MS analysis. Before analysis, pH values of prepared sample solutions are checked and adjusted if necessary.
# b3) For Fed SIF Media pH 5.0 Testing:
# as §4, with “Fed” for “Fasted”, “5.0” for “6.5”, “40” for “10”
# [6] = test system: Haemophilus influenzae ATCC49247; test: Anti-bacterial screening, broth microdilution MIC; format: cell-based; details: read-out: minimal inhibitory concentration (MIC)
# Method: (§5) Whole-cell antimicrobial activity of compounds against clinically relevant bacteria (Staphylococcus aureus ATCC13709, Streptococcus pneumoniae ATCC49619, Streptococcus pyogenes ATCC700294, Moraxella catarrhalis ATCC23246, Haemophilus influenzae ATCC49247 and Escherichia coli ATCC25922) is determined by broth microdilution using the Clinical and Laboratory Standards (CLSI) recommended procedure (Document M7-[…], Methods for Dilution Susceptibility Tests for Bacteria that Grow Aerobically). Compounds are dissolved in DMSO to produce a 50 mM stock solution. The stock solution is diluted to a concentration of 128 μg/mL in appropriate media (Haemophilus Test Medium for Haemophilus influenzae, Mueller-Hinton Broth for Staphylococcus aureus, Moraxella catarrhalis and Escherichia coli, and Mueller-Hinton Broth supplemented with 5% horse serum for Streptococcus pyogenes and Streptococcus pneumoniae) to produce a working solution. A Tecan Genesis 150 Workstation (Tecan Group Ltd. Mannedorf, Switzerland) is used to prepare serial two-fold dilutions (50 μL aliquots) of the working solution in a U-shape bottom 96 well microtitre plate. After the compounds are diluted, a 50 μL aliquot of the test isolate ( 1×10^6 cfu/ml) is added to each well of the microtitre plate. The final test concentrations range from 0.125-64 μg/mL. Inoculated plates are incubated at 35° C. in ambient air for 18 to 24 hours. The minimum inhibitory concentration (MIC) is determined as the lowest concentration of compound that inhibited visible growth.
# [7] = test system: Staphylococcus aureus ATCC13709; test: Anti-bacterial screening, broth microdilution MIC; format: cell-based; details: read-out: minimal inhibitory concentration (MIC)
# Method: as §5
# [8] = test system: Escherichia coli ATCC25922; test: Anti-bacterial screening, broth microdilution MIC; format: cell-based; details: read-out: minimal inhibitory concentration (MIC)
# Method: as §5
# [9] = test system: Streptococcus pneumoniae ATCC49619; test: Anti-bacterial screening, broth microdilution MIC; format: cell-based; details: read-out: minimal inhibitory concentration (MIC)
# Method: as §5
# [10] = test system: Streptococcus pyogenes ATCC700294; test: Anti-bacterial screening, broth microdilution MIC; format: cell-based; details: read-out: minimal inhibitory concentration (MIC)
# Method: as §5
# [11] = test system: Moraxella catarrhalis ATCC23246; test: Anti-bacterial screening, broth microdilution MIC; format: cell-based; details: read-out: minimal inhibitory concentration (MIC)
# Method: as §5
structure (smiles),measurement,setting,value
"CC[C@H]1OC(=O)[C@H](C)[C@@H](O[C@H]2C[C@@](C)(OC)[C@@H](OC(=O)CN(CC)CC)[C@H](C)O2)[C@H](C)[C@@H](O[C@@H]2O[C@H](C)C[C@H](NC)[C@H]2O)[C@](C)(OC)C[C@@H](C)C(=O)N[C@H](C)[C@@H](O)[C@]1(C)O [Example 1, 3′-N-Demethyl-4″-O-(2-diethylaminoethanoyl)-6-O-methyl-9a-aza-9a-homoerythromycin A]",inhibition of the number of neutrophils in BALF,[1],more than 89%
same,stability in buffers pH 2 to 8,[2],showed stability
same,stability in whole blood,[3],stable
same,stability in plasma,[4],stable
same,stability in all three bio relevant media,[5],Examples 1 and 3 showed stability in all three bio relevant media.
same,MIC,[6],> 64 µg/mL
same,MIC,[7],> 64 µg/mL
same,MIC,[8],> 64 µg/mL
same,MIC,[9],> 64 µg/mL
same,MIC,[10],> 64 µg/mL
same,MIC,[11],> 64 µg/mL
